Reference: the CheMixHub viscosity set

Experiment: xn = mol fraction of the nth substance listed

c1ccc2c(c1)CCCC2 + CCCCCCCCCC
viscosity [mPa·s]
Details | 293.15 K | 298.15 K | 303.15 K | 308.15 K | 313.15 K | 318.15 K | 323.15 K
100 kPa, x1 = 0.0986 | 0.954 | 0.886 | 0.827 | 0.774 | 0.727 | 0.685 | 0.647
100 kPa, x1 = 0.2025 | 1.008 | 0.936 | 0.871 | 0.814 | 0.763 | 0.718 | 0.678
100 kPa, x1 = 0.2995 | 1.065 | 0.987 | 0.919 | 0.859 | 0.805 | 0.757 | 0.713
100 kPa, x1 = 0.3994 | 1.133 | 1.043 | 0.973 | 0.908 | 0.85 | 0.798 | 0.752
100 kPa, x1 = 0.5005 | 1.221 | 1.127 | 1.045 | 0.973 | 0.909 | 0.852 | 0.802
100 kPa, x1 = 0.5989 | 1.329 | 1.224 | 1.132 | 1.047 | 0.977 | 0.916 | 0.859
100 kPa, x1 = 0.6999 | 1.468 | 1.347 | 1.243 | 1.151 | 1.07 | 0.999 | 0.936
100 kPa, x1 = 0.7987 | 1.644 | 1.495 | 1.382 | 1.276 | 1.182 | 1.101 | 1.028
100 kPa, x1 = 0.9002 | 1.878 | 1.708 | 1.564 | 1.437 | 1.326 | 1.23 | 1.147
101 kPa, x2 = 0.1001 | 1.873 | 1.703 | 1.56 | – | 1.328 | – | –
101 kPa, x2 = 0.2044 | 1.629 | 1.486 | 1.368 | – | 1.175 | – | –
101 kPa, x2 = 0.2961 | 1.471 | 1.349 | 1.245 | – | 1.073 | – | –
101 kPa, x2 = 0.3964 | 1.345 | 1.238 | 1.148 | – | 0.995 | – | –
101 kPa, x2 = 0.4994 | 1.226 | 1.134 | 1.053 | – | 0.917 | – | –
101 kPa, x2 = 0.6017 | 1.143 | 1.06 | 0.986 | – | 0.862 | – | –
101 kPa, x2 = 0.6964 | 1.071 | 0.993 | 0.925 | – | 0.809 | – | –
101 kPa, x2 = 0.7971 | 1.015 | 0.942 | 0.878 | – | 0.77 | – | –
101 kPa, x2 = 0.8894 | 0.968 | 0.9 | 0.838 | – | 0.737 | – | –

OC[C@@H](O)[C@@H](O)[C@H](O)[C@@H](O)CO + O
Details | viscosity [mPa·s]
293.15 K, 101 kPa, x1 = 0.0142 | 1.458
303.15 K, 101 kPa, x1 = 0.002 | 0.8134
303.15 K, 101 kPa, x1 = 0.003592 | 0.8731
303.15 K, 101 kPa, x1 = 0.004 | 0.8647
303.15 K, 101 kPa, x1 = 0.006 | 0.916
303.15 K, 101 kPa, x1 = 0.007154 | 0.948
303.15 K, 101 kPa, x1 = 0.0078 | 0.9637
303.15 K, 101 kPa, x1 = 0.008 | 0.9675
303.15 K, 101 kPa, x1 = 0.0089 | 0.9962
303.15 K, 101 kPa, x1 = 0.01 | 1.019
303.15 K, 101 kPa, x1 = 0.012 | 1.071
303.15 K, 101 kPa, x1 = 0.0122 | 1.072
303.15 K, 101 kPa, x1 = 0.0135 | 1.104
303.15 K, 101 kPa, x1 = 0.016 | 1.175
303.15 K, 101 kPa, x1 = 0.0194 | 1.277
303.15 K, 101 kPa, x1 = 0.02 | 1.279
303.15 K, 101 kPa, x1 = 0.0228 | 1.345
303.15 K, 101 kPa, x1 = 0.024 | 1.383
303.15 K, 101 kPa, x1 = 0.026 | 1.436
303.15 K, 101 kPa, x1 = 0.028 | 1.489
305.15 K, 100 kPa, x1 = 4e-05 | 0.8093
305.15 K, 100 kPa, x1 = 7e-05 | 0.8135
308.15 K, 101 kPa, x1 = 0.004 | 0.7869
308.15 K, 101 kPa, x1 = 0.006 | 0.8221
308.15 K, 101 kPa, x1 = 0.008 | 0.8763
308.15 K, 101 kPa, x1 = 0.01 | 0.9231
308.15 K, 101 kPa, x1 = 0.012 | 0.9658
308.15 K, 101 kPa, x1 = 0.014 | 1.008
308.15 K, 101 kPa, x1 = 0.016 | 1.054
308.15 K, 101 kPa, x1 = 0.018 | 1.105
308.15 K, 101 kPa, x1 = 0.02 | 1.147
308.15 K, 101 kPa, x1 = 0.022 | 1.203
308.15 K, 101 kPa, x1 = 0.024 | 1.245
308.15 K, 101 kPa, x1 = 0.026 | 1.291
308.15 K, 101 kPa, x1 = 0.028 | 1.355
310.15 K, 100 kPa, x1 = 4e-05 | 0.7489
310.15 K, 100 kPa, x1 = 7e-05 | 0.7596
313.15 K, 101 kPa, x1 = 0.002 | 0.6825
313.15 K, 101 kPa, x1 = 0.004 | 0.7202
313.15 K, 101 kPa, x1 = 0.006 | 0.7581
313.15 K, 101 kPa, x1 = 0.007154 | 0.7675
313.15 K, 101 kPa, x1 = 0.0078 | 0.7956
313.15 K, 101 kPa, x1 = 0.008 | 0.7961
313.15 K, 101 kPa, x1 = 0.0089 | 0.815
313.15 K, 101 kPa, x1 = 0.01 | 0.8344
313.15 K, 101 kPa, x1 = 0.0107 | 0.834
313.15 K, 101 kPa, x1 = 0.012 | 0.8728
313.15 K, 101 kPa, x1 = 0.0122 | 0.8704
313.15 K, 101 kPa, x1 = 0.014 | 0.9114
313.15 K, 101 kPa, x1 = 0.016 | 0.9502
313.15 K, 101 kPa, x1 = 0.0169 | 0.9712
313.15 K, 101 kPa, x1 = 0.0177 | 0.9777
313.15 K, 101 kPa, x1 = 0.018 | 0.9891
313.15 K, 101 kPa, x1 = 0.022 | 1.068
313.15 K, 101 kPa, x1 = 0.0228 | 1.077
313.15 K, 101 kPa, x1 = 0.024 | 1.107
313.15 K, 101 kPa, x1 = 0.026 | 1.147
313.15 K, 101 kPa, x1 = 0.028 | 1.187
315.15 K, 100 kPa, x1 = 4e-05 | 0.7083
315.15 K, 100 kPa, x1 = 7e-05 | 0.7362
318.15 K, 101 kPa, x1 = 0.004 | 0.6625
318.15 K, 101 kPa, x1 = 0.006 | 0.6978
318.15 K, 101 kPa, x1 = 0.008 | 0.7286
318.15 K, 101 kPa, x1 = 0.01 | 0.7647
318.15 K, 101 kPa, x1 = 0.012 | 0.796
318.15 K, 101 kPa, x1 = 0.014 | 0.8293
318.15 K, 101 kPa, x1 = 0.016 | 0.8716
318.15 K, 101 kPa, x1 = 0.018 | 0.9013
318.15 K, 101 kPa, x1 = 0.02 | 0.9433
318.15 K, 101 kPa, x1 = 0.022 | 0.9822
318.15 K, 101 kPa, x1 = 0.024 | 1.015
318.15 K, 101 kPa, x1 = 0.026 | 1.06
318.15 K, 101 kPa, x1 = 0.028 | 1.089
323.15 K, 101 kPa, x1 = 0.002 | 0.5854
323.15 K, 101 kPa, x1 = 0.003592 | 0.5894
323.15 K, 101 kPa, x1 = 0.004 | 0.6131
323.15 K, 101 kPa, x1 = 0.006 | 0.6414
323.15 K, 101 kPa, x1 = 0.0078 | 0.6663
323.15 K, 101 kPa, x1 = 0.008 | 0.6702
323.15 K, 101 kPa, x1 = 0.0089 | 0.685
323.15 K, 101 kPa, x1 = 0.01 | 0.6996
323.15 K, 101 kPa, x1 = 0.0103 | 0.7078
323.15 K, 101 kPa, x1 = 0.0107 | 0.6878
323.15 K, 101 kPa, x1 = 0.0112 | 0.716
323.15 K, 101 kPa, x1 = 0.012 | 0.7295
323.15 K, 101 kPa, x1 = 0.0122 | 0.7288
323.15 K, 101 kPa, x1 = 0.014 | 0.76
323.15 K, 101 kPa, x1 = 0.0142 | 0.7324
323.15 K, 101 kPa, x1 = 0.015 | 0.7741
323.15 K, 101 kPa, x1 = 0.016 | 0.791
323.15 K, 101 kPa, x1 = 0.0169 | 0.8041
323.15 K, 101 kPa, x1 = 0.0177 | 0.7979
323.15 K, 101 kPa, x1 = 0.018 | 0.8226
323.15 K, 101 kPa, x1 = 0.0194 | 0.8507
323.15 K, 101 kPa, x1 = 0.02 | 0.8547
323.15 K, 101 kPa, x1 = 0.022 | 0.8874
323.15 K, 101 kPa, x1 = 0.0228 | 0.8982
323.15 K, 101 kPa, x1 = 0.024 | 0.9206
323.15 K, 101 kPa, x1 = 0.026 | 0.9544
323.15 K, 101 kPa, x1 = 0.028 | 0.9887
